Test results reported in patent US20240425464A1, “Substituted Monohydrazides as Potent Antifungal Agents” (University of Kentucky Research Foundation, priority 2023, published 2024).
≈ marks a conversion by molar mass, not a printed value. Read-outs that look alike come from different tables or passages of the source.

Assays:
[1] = system: Candida duobushaemulonii AR Bank #391; test: MIC determination by in vitro antifungal assay; type: cell-based
Procedure: (§1) The antifungal agent amphotericin B (AmB) was purchased from VWR (Radnor PA, USA). AmB was dissolved in DMSO at a final concentration of 5 mg/mL and was stored at −20° C., protected from light. Candida albicans American Type Culture Collection (ATCC) 10231 (strain A), C. albicans ATCC 64124 (B), and C. albicans ATCC MYA-2876 (C) were obtained from Utah State University. C. albicans ATCC 90819 (D), C. albicans ATCC MYA-2310 (E), C. albicans ATCC MYA-1237 (F), C. albicans ATCC MYA-1003 (G), Candida glabrata ATCC 2001 (H), Candida krusei ATCC 6258 (I), Candida parapsilosis ATCC 22019 (J), Cryptococcus neoformans ATCC MYA-895 (M), Aspergillus terreus ATCC MYA-3633 (N), and Aspergillus flavus ATCC MYA-3631 (0) were obtained from the American Type Culture Collection (ATCC; Manassas, VA, USA). Aspergillus nidulans ATCC 38163 (P) was obtained from University of Kentucky. Clinically derived Aspergillus fumigatus NRRL 163 (Q), A. fumigatus NRRL 5109 (R), and A. fumigatus NRRL 6113 (S) were obtained from Northern Regional Research Laboratory (NRRL). Candida auris 384 (K), C. auris 390 (L), and fungal strains 381-400 (including 10 C. auris (AR Bank #381-390), 3 Candida duobushaemulonii (AR Bank #391, AR Bank #392, and AR Bank #394), 2 Candida haemulonii (AR Bank #393 and AR Bank #395), 1 Kodameae ohmeri (AR Bank #396), 1 C. krusei (AR Bank #397), 1 Candida lusitaniae (AR Bank #398), and 2 Saccharomyces cerevisiae strains (AR Bank #399 and AR Bank #400)) were part of a larger fungal library from the AR Bank maintained by the Centers for Disease Control and Prevention (CDC; Atlanta, GA, USA). Filamentous fungi and yeasts were cultivated at 35° C. in RPMI 1640 medium (with L-glutamine, without sodium bicarbonate, Sigma-Aldrich, St. Louis, MO) buffered to a pH of 7.0 with 0.165 M morpholinepropanesulfonic acid (MOPS) buffer (Sigma-Aldrich). For cytotoxicity assays, HepG2 and the mouse macrophage cell line J774A.1 were obtained from University of Kentucky. The human embryonic kidney cell line, HEK-293, was bought from the ATCC. Mammalian cells were grown in Dulbecco's Modified Eagle's Medium (DMEM) (from VWR) with 10% fetal bovine serum (FBS) (from VWR) and 1% Pen/Strep (from ATCC). Cell lines were cultured at 37° C. with 5% CO2 and passaged by trypsinization with 0.05% trypsin: 0.53 mM EDTA (from Sigma-Aldrich).
(§2) From the actively growing yeast culture, 100 µL were then transferred to 900 μL of RPMI 1640 medium and re-adjusted to achieve OD600 of 0.12 (˜1×10^6 CFU/mL). The cell suspension was further diluted to achieve 1:100 in RPMI 1640 medium.

[2] = system: Candida duobushaemulonii AR Bank #392; test: MIC determination by in vitro antifungal assay; type: cell-based
Procedure: as §1, §2

[3] = system: Candida duobushaemulonii AR Bank #394; test: MIC determination by in vitro antifungal assay; type: cell-based
Procedure: as §1, §2

[4] = system: Candida haemulonii AR Bank #393; test: MIC determination by in vitro antifungal assay; type: cell-based
Procedure: as §1, §2

[5] = system: Candida haemulonii AR Bank #395; test: MIC determination by in vitro antifungal assay; type: cell-based
Procedure: as §1, §2

[6] = system: Candida krusei AR Bank #397; test: MIC determination by in vitro antifungal assay; type: cell-based; conditions: Candida strain AR Bank #397
Procedure: as §1, §2

[7] = system: Candida lusitaniae AR Bank #398; test: MIC determination by in vitro antifungal assay; type: cell-based; conditions: Candida strain AR Bank #398
Procedure: as §1, §2

[8] = system: Kodameae ohmeri AR Bank #396; test: MIC determination by in vitro antifungal assay; type: cell-based; conditions: strain AR Bank #396
Procedure: as §1, §2

[9] = system: Saccharomyces cerevisiae AR Bank #399; test: MIC determination by in vitro antifungal assay; type: cell-based
Procedure: as §1, §2

[10] = system: C. albicans ATCC 10231 (strain A) biofilm formation; test: Prevention of biofilm formation assay; type: cell-based, Candida albicans
Procedure: Biofilm prevention assays were set up identically to the ordinary MIC experiment, where compounds were diluted, and the fungi added. After overnight growth, the plates were washed as in the biofilm disruption assay and stained and measured in the same fashion.
A large amount of fungal cells were exposed to the monohydrazides at time 0 h to evaluate the effect of these compounds in the prevention of Candida biofilm formation (FIG. 5B). […] Although some of these monohydrazides were able to prevent biofilm formation, none of these compounds had any effect in terms of the disruption of already pre-formed biofilms (FIG. 5A).

[11] = system: panel of ten C. auris strains (AR Bank #381-390); test: MIC determination, summary over the C. auris panel; type: cell-based, Candida auris; conditions: Candidozyma auris
Procedure: as §1, §2

[12] = Candidozyma duobushaemuli, read-out: MIC
[13] = Candidozyma haemuli, read-out: MIC
[14] = Pichia kudriavzevii, read-out: MIC
[15] = Clavispora lusitaniae, read-out: MIC
[16] = against all ten C. auris strains tested (AR Bank #381-390)
[17] = all C. auris strains tested with the exception of AR Bank #390

Row | SMILES | MIC [1, 12] [mg/L] | MIC [2, 12] [mg/L] | MIC [3, 12] [mg/L] | MIC [4, 13] [mg/L] | MIC [5, 13] [mg/L] | MIC [6, 14] [mg/L] | MIC [7, 15] [mg/L] | MIC ([8]; read-out: MIC) [mg/L] | MIC ([9]; read-out: MIC) [mg/L] | MIC [11, 16] [mg/L] | other results
1 | O=C(NNc1cc(F)cc(F)c1)c1ccccn1 [Compound 2i] | 0.24 (≈ 0.963 µM) | 0.49 (≈ 1.97 µM) | 0.24 (≈ 0.963 µM) | 0.49 (≈ 1.97 µM) | 0.24 (≈ 0.963 µM) | 0.12 (≈ 0.482 µM) | 0.49 (≈ 1.97 µM) | 0.12 (≈ 0.482 µM) | 1.95 (≈ 7.82 µM) | 0.06 to 1.95 (≈ 0.241 to 7.82 µM) | prevention of biofilm formation [10]: not capable of preventing
2 | COc1ccc(NNC(=O)c2ncc(F)cc2F)cc1 [Compound 7f] | – | – | – | – | – | – | – | – | – | – | MIC [11, 17]: 0.49 to 1.95 mg/L (≈ 1.75 to 6.98 µM)
3 | O=C(NNc1ccc(F)cc1)c1ncc(F)cc1F [Compound 7d] | – | – | – | – | – | – | – | – | – | 0.12 to 7.8 (≈ 0.449 to 29.2 µM) | –
4 | COc1ccc(NNC(=O)c2cnccn2)cc1 [Compound 9f] | 0.49 (≈ 2.01 µM) | 0.49 (≈ 2.01 µM) | 0.49 (≈ 2.01 µM) | 0.24 (≈ 0.983 µM) | 0.49 (≈ 2.01 µM) | 0.49 (≈ 2.01 µM) | 0.98 (≈ 4.01 µM) | 0.98 (≈ 4.01 µM) | 0.98 (≈ 4.01 µM) | 0.06 to 1.95 (≈ 0.246 to 7.98 µM) | –
5 | COc1cccc(NNC(=O)c2ccccn2)c1 [Compound 2c] | – | – | – | – | – | – | – | – | – | – | MIC [1]: 1.95 μg/mL^−1; MIC [2]: 1.95 μg/mL^−1; MIC [3]: 0.98 μg/mL^−1; MIC [4]: 0.49 μg/mL^−1; MIC [5]: 0.49 μg/mL^−1; MIC [6]: 0.49 μg/mL^−1; MIC [7]: 1.95 μg/mL^−1; MIC [8]: 0.49 μg/mL^−1; MIC [9]: 7.8 μg/mL^−1; concentration active in prevention of biofilm formation [10]: 1.96 j·tg mL^−1
6 | COc1ccc(NNC(=O)c2ccccn2)cc1 [Compound 2f] | 0.98 (≈ 4.03 µM) | 0.98 (≈ 4.03 µM) | 0.98 (≈ 4.03 µM) | 0.49 (≈ 2.01 µM) | 0.49 (≈ 2.01 µM) | 0.49 (≈ 2.01 µM) | 0.98 (≈ 4.03 µM) | 0.49 (≈ 2.01 µM) | 1.95 (≈ 8.02 µM) | 0.12 to 7.8 (≈ 0.493 to 32.1 µM) | concentration active in prevention of biofilm formation [10]: 7.8 j·tg mL^−1
7 | O=C(NNc1ccc(F)cc1)c1nc(F)ccc1F [Compound 8d] | – | – | – | – | – | – | – | – | – | 0.06 to 1.95 (≈ 0.225 to 7.3 µM) | –
8 | O=C(NNc1cc(Cl)cc(Cl)c1)c1ccccn1 [Compound 2j] | 0.98 (≈ 3.47 µM) | 0.98 (≈ 3.47 µM) | 0.49 (≈ 1.74 µM) | 0.24 (≈ 0.851 µM) | 0.24 (≈ 0.851 µM) | 0.49 (≈ 1.74 µM) | 3.9 (≈ 13.8 µM) | 0.49 (≈ 1.74 µM) | 3.9 (≈ 13.8 µM) | 0.12 to 7.8 (≈ 0.425 to 27.6 µM) | prevention of biofilm formation [10]: not capable of preventing
9 | COc1cccc(NNC(=O)c2cnccn2)c1 [Compound 9c] | – | 0.98 (≈ 4.01 µM) | 1.95 (≈ 7.98 µM) | 0.49 (≈ 2.01 µM) | 0.49 (≈ 2.01 µM) | 0.49 (≈ 2.01 µM) | 1.95 (≈ 7.98 µM) | 0.49 (≈ 2.01 µM) | 7.8 (≈ 31.9 µM) | 0.12 to 7.8 (≈ 0.491 to 31.9 µM) | –
10 | O=C(NNc1cccc(Cl)c1)c1cnccn1 [Compound 9b] | 0.24 (≈ 0.965 µM) | 0.12 (≈ 0.483 µM) | 0.12 (≈ 0.483 µM) | 0.24 (≈ 0.965 µM) | 0.24 (≈ 0.965 µM) | 0.12 (≈ 0.483 µM) | 0.49 (≈ 1.97 µM) | 0.12 (≈ 0.483 µM) | 0.98 (≈ 3.94 µM) | 0.06 to 1.95 (≈ 0.241 to 7.84 µM) | –
11 | O=C(NNc1ccc(F)cc1F)c1ccccn1 [Compound 2g] | 0.12 (≈ 0.482 µM) | 0.49 (≈ 1.97 µM) | 3.9 (≈ 15.6 µM) | 0.49 (≈ 1.97 µM) | 0.24 (≈ 0.963 µM) | ≤ 0.06 | 1.95 (≈ 7.82 µM) | 0.98 (≈ 3.93 µM) | 0.49 (≈ 1.97 µM) | 0.06 to 1.95 (≈ 0.241 to 7.82 µM) | prevention of biofilm formation [10]: not capable of preventing
12 | C[C@@H]1[C@H](O)[C@@H](C)/C=C/C=C/C=C/C=C/C=C/C=C/C=C/[C@H](O[C@@H]2O[C@H](C)[C@@H](O)[C@H](N)[C@@H]2O)C[C@@H]2O[C@](O)(C[C@@H](O)C[C@@H](O)[C@H](O)CC[C@@H](O)C[C@@H](O)CC(=O)O[C@H]1C)C[C@H](O)[C@H]2C(=O)O [AmB, amphotericin B, reference compound] | – | – | – | – | – | – | – | – | – | – | MIC [1]: 7.8 μg/mL^−1; MIC [2]: 7.8 μg/mL^−1; MIC [3]: 0.98 μg/mL^−1; MIC [4]: 13.6 μg/mL^−1; MIC [5]: 3.9 μg/mL^−1; MIC [6]: 0.49 μg/mL^−1; MIC [7]: 3.9 μg/mL^−1; MIC [8]: 1.95 μg/mL^−1; MIC [9]: 15.6 μg/mL^−1
13 | COc1ccc(NNC(=O)c2nc(F)ccc2F)cc1 [Compound 8f] | – | – | – | – | – | – | – | – | – | – | MIC [11, 17]: 0.49 to 1.95 mg/L (≈ 1.75 to 6.98 µM)
